Eight compounds from US20230129438A1, “IMMUNOMODULATING IMINE-OXAZOLINE AZALIDES” (Zoetis Services LLC, priority 2020, published 2023) can be followed below.

The test system of data set [1] is M. haemolytica. The data set is described as follows: In-vitro MIC model, M. haemolytica. It is filed as cell-based.
The subject of data set [2] is P. multocida. Briefly: In-vitro MIC model, P. multocida. The data set is classed as cell-based.
Data set [3] concerns E. coli. The data set is described as follows: In-vitro MIC model, E. coli.
Data set [4] deals with S. aureus. The data set is described as follows: In-vitro MIC model, S. aureus. The following applies: S. aureus ATCC 29213.
In data set [5] the test system is TNF-α. Briefly: Bovine whole blood assay, LPS-induced TNF-α. The following applies: LPS 1 μg/mL. It is filed as cell-based. As for the experimental part:
(§1) (protected from light) for 30 minutes.

Data set [6] deals with IL-1β. Briefly: Bovine whole blood assay, IL-1β. The following applies: drug concentration giving overstimulation of IL-1β over LPS (cellular toxicity signal). It is filed as cell-based. As to the method:
as §1

Data set [7] has as its system P. multocida 46572. Briefly: In vivo mouse lung infection challenge model (murine efficacy model). The following applies: for % Survival: 20 mg/kg subcutaneous, CD-1 mice, intranasal challenge, to Day 10, approximate (~%), harmonized relative to vehicle and M9.
Data set [8] has as its system IL-6. The data set is described as follows: Bovine whole blood assay, LPS-induced IL-6. The data set is classed as cell-based. The following applies: LPS 1 μg/mL.
[9] abbreviates: M. haemolytica 46571, bovine efficacy challenge strain.
[10] abbreviates: P. multocida 46572, murine efficacy challenge strain.

SMILES strings stand for the structures. Bounds are passed on as bounds.

Consider `CCCNC[C@]1(O)[C@H](C)O[C@@H](O[C@H]2[C@H](C)[C@@H](O[C@@H]3O[C@H](C)C[C@H]4[C@H]3OC(=NCC(F)(F)F)N4C)[C@](C)(O)C[C@@H](C)CN[C@H](C)[C@@H](O)[C@](C)(O)[C@@H](CC)OC(=O)[C@@H]2C)C[C@@]1(C)OC` (mixture of isomers) [Example A-4, (E/Z)-(2R,3S,4R,5R,8R,10R,11R,12S,13S,14R)-11-(((3aR,4S,6R,7aS)-1,6-dimethyl-2-((2,2,2-trifluoroethyl)imino)hexahydro-2H-pyrano[4,3-d]oxazol-4-yl)oxy)-2-ethyl-3,4,10-trihydroxy-13-(((2R,4R,5S,6S)-5-hydroxy-4-methoxy-4,6-dimethyl-5-((propylamino)methyl)tetrahydro-2H-pyran-2-yl)oxy)-3,5,8,10,12,14-hexamethyl-1-oxa-6-azacyclopentadecan-15-one], for which the MIC in data set [1] (M. haemolytica 12726), in data set [1] (setting [9]), in data set [1] (M. haemolytica ATCC 33396), in data set [2] (setting [10]), in data set [2] (P. multocida ATCC 43137) and in data set [3] (E. coli ATCC 25922) was above 64 µg/mL throughout. The MIC in data set [3] (E. coli W3110) and in data set [4] was above 64 µg/mL each time.

Take `CCCNC[C@]1(O)[C@H](C)O[C@@H](O[C@H]2[C@H](C)[C@@H](O[C@@H]3O[C@H](C)C[C@H]4[C@H]3OC(=Nc3ccc(OC)cc3)N4C)[C@](C)(O)C[C@@H](C)CN[C@H](C)[C@@H](O)[C@](C)(O)[C@@H](CC)OC(=O)[C@@H]2C)C[C@@]1(C)OC` (mixture of isomers) [Example A-9, (E/Z)-(2R,3S,4R,5R,8R,10R,11R,12S,13S,14R)-2-ethyl-3,4,10-trihydroxy-13-(((2R,4R,5S,6S)-5-hydroxy-4-methoxy-4,6-dimethyl-5-((propylamino)methyl)tetrahydro-2H-pyran-2-yl)oxy)-11-(((3aR,4S,6R,7aS)-2-((4-methoxyphenyl)imino)-1,6-dimethylhexahydro-2H-pyrano[4,3-d]oxazol-4-yl)oxy)-3,5,8,10,12,14-hexamethyl-1-oxa-6-azacyclopentadecan-15-one]: the minimal inhibitory concentration (MIC) in data set [1] (M. haemolytica 12726), in data set [1] (setting [9]), in data set [1] (M. haemolytica ATCC 33396), in data set [2] (setting [10]), in data set [2] (P. multocida ATCC 43137) and in data set [3] (E. coli ATCC 25922) was above 64 µg/mL throughout. Besides, the MIC in data set [3] (E. coli W3110) and in data set [4] was above 64 µg/mL each time. In data set [5], this compound displayed an IC50 below 5 µM. Besides, the “IL-Iβ OS of LPS” value in data set [6] stood at 13 µM. Moreover, the “% Survival” value in data set [7] was found to be 64%.

As for `CC[C@H]1OC(=O)[C@H](C)[C@@H](O[C@H]2C[C@@](C)(OC)[C@](O)(CNCCOC)[C@H](C)O2)[C@H](C)[C@@H](O[C@@H]2O[C@H](C)C[C@H]3[C@H]2OC(=Nc2ccc(OC)cc2)N3C)[C@](C)(O)C[C@@H](C)CN[C@H](C)[C@@H](O)[C@]1(C)O` (mixture of isomers) [Example A-13, (E/Z)-(2R,3S,4R,5R,8R,10R,11R,12S,13S,14R)-2-ethyl-3,4,10-trihydroxy-13-(((2R,4R,5S,6S)-5-hydroxy-4-methoxy-5-(((2-methoxyethyl)amino)methyl)-4,6-dimethyltetrahydro-2H-pyran-2-yl)oxy)-11-(((3aR,4S,6R,7aS)-2-((4-methoxyphenyl)imino)-1,6-dimethylhexahydro-2H-pyrano[4,3-d]oxazol-4-yl)oxy)-3,5,8,10,12,14-hexamethyl-1-oxa-6-azacyclopentadecan-15-one], the MIC in data set [1] (M. haemolytica 12726), in data set [1] (setting [9]), in data set [1] (M. haemolytica ATCC 33396), in data set [2] (setting [10]), in data set [2] (P. multocida ATCC 43137) and in data set [3] (E. coli ATCC 25922) was above 64 µg/mL in each case. The MIC in data set [3] (E. coli W3110) and in data set [4] was above 64 µg/mL each time. The compound also returned a 50% inhibitory concentration (IC50) in data set [5] of 5 µM. Moreover, the “IL-Iβ OS of LPS” value in data set [6] was determined as 32 µM. Moreover, the “% Survival” value in data set [7] is given as 37%. Also, in data set [7] (P. multocida infection in mice), the “clinical efficacy, in words” value is listed as “clinically efficacious”.

Take `CCCNC[C@]1(O)[C@H](C)O[C@@H](O[C@H]2[C@H](C)[C@@H](O[C@@H]3O[C@H](C)C[C@H]4[C@H]3OC(=Nc3ccc(OC)nc3)N4C)[C@](C)(O)C[C@@H](C)CN[C@H](C)[C@@H](O)[C@](C)(O)[C@@H](CC)OC(=O)[C@@H]2C)C[C@@]1(C)OC` (mixture of isomers) [Example A-17, (E/Z)-(2R,3S,4R,5R,8R,10R,11R,12S,13S,14R)-2-ethyl-3,4,10-trihydroxy-13-(((2R,4R,5S,6S)-5-hydroxy-4-methoxy-4,6-dimethyl-5-((propylamino)methyl)tetrahydro-2H-pyran-2-yl)oxy)-11-(((3aR,4S,6R,7aS)-2-((6-methoxypyridin-3-yl)imino)-1,6-dimethylhexahydro-2H-pyrano[4,3-d]oxazol-4-yl)oxy)-3,5,8,10,12,14-hexamethyl-1-oxa-6-azacyclopentadecan-15-one]: the minimal inhibitory concentration (MIC) in data set [1] (M. haemolytica 12726), in data set [1] (setting [9]), in data set [1] (M. haemolytica ATCC 33396), in data set [2] (setting [10]), in data set [2] (P. multocida ATCC 43137) and in data set [3] (E. coli ATCC 25922) was above 64 µg/mL each time. For the same compound, the MIC in data set [3] (E. coli W3110) and in data set [4] was above 64 µg/mL each time. The “% Survival” value in data set [7] was found to be 37%.

As to `CC[C@H]1OC(=O)[C@H](C)[C@@H](O[C@H]2C[C@@](C)(OC)[C@](O)(CNCC3CC3)[C@H](C)O2)[C@H](C)[C@@H](O[C@@H]2O[C@H](C)C[C@H]3[C@H]2OC(=Nc2ccc(OC)nc2)N3C)[C@](C)(O)C[C@@H](C)CN[C@H](C)[C@@H](O)[C@]1(C)O` (mixture of isomers) [Example A-25, (E/Z)-(2R,3S,4R,5R,8R,10R,11R,12S,13S,14R)-13-(((2R,4R,5S,6S)-5-(((cyclopropylmethyl)amino)methyl)-5-hydroxy-4-methoxy-4,6-dimethyltetrahydro-2H-pyran-2-yl)oxy)-2-ethyl-3,4,10-trihydroxy-11-(((3aR,4S,6R,7aS)-2-((6-methoxypyridin-3-yl)imino)-1,6-dimethylhexahydro-2H-pyrano[4,3-d]oxazol-4-yl)oxy)-3,5,8,10,12,14-hexamethyl-1-oxa-6-azacyclopentadecan-15-one], the figures for the IC50 in data set [8] and in data set [5] were 4 µM and 2.5 µM, respectively. Besides, the “IL-Iβ OS of LPS” value in data set [6] worked out at 16 µM. The “% Survival” value in data set [7] is reported as 26%.

Regarding `CCCNC[C@]1(O)[C@H](C)O[C@@H](O[C@H]2[C@H](C)[C@@H](O[C@@H]3O[C@H](C)C[C@H]4[C@H]3OC(=Nc3ccccc3)N4C)[C@](C)(O)C[C@@H](C)CN(C)[C@H](C)[C@@H](O)[C@](C)(O)[C@@H](CC)OC(=O)[C@@H]2C)C[C@@]1(C)OC` (mixture of isomers) [Example A-31, (E/Z)-(2R,3S,4R,5R,8R,10R,11R,12S,13S,14R)-11-(((3aR,4S,6R,7aS)-1,6-dimethyl-2-(phenylimino)hexahydro-2H-pyrano[4,3-d]oxazol-4-yl)oxy)-2-ethyl-3,4,10-trihydroxy-13-(((2R,4R,5S,6S)-5-hydroxy-4-methoxy-4,6-dimethyl-5-((propylamino)methyl)tetrahydro-2H-pyran-2-yl)oxy)-3,5,6,8,10,12,14-heptamethyl-1-oxa-6-azacyclopentadecan-15-one], the IC50 in data set [8] was 10 µM; in data set [5], 7 µM. In addition, the “IL-Iβ OS of LPS” value in data set [6] is above 250 µM.

Regarding `CCCNC[C@]1(O)[C@H](C)O[C@@H](O[C@H]2[C@H](C)[C@@H](O[C@@H]3O[C@H](C)C[C@H]4[C@H]3OC(=Nc3ccccc3)N4CC(C)C)[C@](C)(O)C[C@@H](C)CN[C@H](C)[C@@H](O)[C@](C)(O)[C@@H](CC)OC(=O)[C@@H]2C)C[C@@]1(C)OC` (mixture of isomers) [Example A-32, (E/Z)-(2R,3S,4R,5R,8R,10R,11R,12S,13S,14R)-2-ethyl-3,4,10-trihydroxy-13-(((2R,4R,5S,6S)-5-hydroxy-4-methoxy-4,6-dimethyl-5-((propylamino)methyl)tetrahydro-2H-pyran-2-yl)oxy)-11-(((3aR,4S,6R,7aS)-1-isobutyl-6-methyl-2-(phenylimino)hexahydro-2H-pyrano[4,3-d]oxazol-4-yl)oxy)-3,5,8,10,12,14-hexamethyl-1-oxa-6-azacyclopentadecan-15-one], the IC50 in data set [8] is 2 µM; in data set [5] it was 5 µM. Further, the “IL-Iβ OS of LPS” value in data set [6] worked out at 2 µM.

Consider `CC[C@H]1OC(=O)[C@H](C)[C@@H](O[C@H]2C[C@@](C)(OC)[C@](O)(CN3CCOCC3)[C@H](C)O2)[C@H](C)[C@@H](O[C@@H]2O[C@H](C)C[C@H]3[C@H]2OC(=Nc2ccccc2)N3C)[C@](C)(O)C[C@@H](C)CN[C@H](C)[C@@H](O)[C@]1(C)O` (mixture of isomers) [Example B-3, (E/Z)-(2R,3S,4R,5R,8R,10R,11R,12S,13S,14R)-11-(((3aR,4S,6R,7aS)-1,6-dimethyl-2-(phenylimino)hexahydro-2H-pyrano[4,3-d]oxazol-4-yl)oxy)-2-ethyl-3,4,10-trihydroxy-13-(((2R,4R,5S,6S)-5-hydroxy-4-methoxy-4,6-dimethyl-5-(morpholinomethyl)tetrahydro-2H-pyran-2-yl)oxy)-3,5,8,10,12,14-hexamethyl-1-oxa-6-azacyclopentadecan-15-one], for which the minimum inhibitory concentration (MIC) in data set [1] (M. haemolytica 12726), in data set [1] (setting [9]), in data set [1] (M. haemolytica ATCC 33396), in data set [2] (setting [10]), in data set [2] (P. multocida ATCC 43137) and in data set [3] (E. coli ATCC 25922) was above 64 µg/mL in each case. In addition, the minimum inhibitory concentration (MIC) in data set [3] (E. coli W3110) and in data set [4] was above 64 µg/mL each time.
